Columns and labels:
COX-2 = target: T1, COX-2 (Homo sapiens, UniProt P35354); assay: Cayman COX Fluorescent Inhibitor Screening Assay Kit; type: biochemical
T1 construct: gene PTGS2
T1 sequence (P35354 18-604): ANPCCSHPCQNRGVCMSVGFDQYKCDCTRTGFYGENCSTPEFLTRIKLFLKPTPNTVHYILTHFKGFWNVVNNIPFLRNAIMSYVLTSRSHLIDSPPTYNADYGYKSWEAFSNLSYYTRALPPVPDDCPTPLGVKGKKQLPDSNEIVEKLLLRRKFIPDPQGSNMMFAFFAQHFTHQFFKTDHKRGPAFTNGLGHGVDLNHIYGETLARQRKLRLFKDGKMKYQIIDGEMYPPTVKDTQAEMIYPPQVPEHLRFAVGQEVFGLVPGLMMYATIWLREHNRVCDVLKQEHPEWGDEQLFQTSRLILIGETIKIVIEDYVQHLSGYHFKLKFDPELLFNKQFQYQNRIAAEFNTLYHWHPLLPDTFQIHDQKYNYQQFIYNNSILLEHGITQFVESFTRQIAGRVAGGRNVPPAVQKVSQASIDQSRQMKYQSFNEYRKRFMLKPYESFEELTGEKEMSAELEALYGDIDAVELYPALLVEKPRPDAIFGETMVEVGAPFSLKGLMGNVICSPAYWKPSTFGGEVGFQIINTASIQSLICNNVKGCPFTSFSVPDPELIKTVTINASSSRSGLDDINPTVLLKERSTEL

COX-1 = target: T2, COX-1 (Ovis aries, UniProt P05979); assay: as above; type: biochemical
T2 construct: gene PTGS1
T2 sequence (P05979 25-600): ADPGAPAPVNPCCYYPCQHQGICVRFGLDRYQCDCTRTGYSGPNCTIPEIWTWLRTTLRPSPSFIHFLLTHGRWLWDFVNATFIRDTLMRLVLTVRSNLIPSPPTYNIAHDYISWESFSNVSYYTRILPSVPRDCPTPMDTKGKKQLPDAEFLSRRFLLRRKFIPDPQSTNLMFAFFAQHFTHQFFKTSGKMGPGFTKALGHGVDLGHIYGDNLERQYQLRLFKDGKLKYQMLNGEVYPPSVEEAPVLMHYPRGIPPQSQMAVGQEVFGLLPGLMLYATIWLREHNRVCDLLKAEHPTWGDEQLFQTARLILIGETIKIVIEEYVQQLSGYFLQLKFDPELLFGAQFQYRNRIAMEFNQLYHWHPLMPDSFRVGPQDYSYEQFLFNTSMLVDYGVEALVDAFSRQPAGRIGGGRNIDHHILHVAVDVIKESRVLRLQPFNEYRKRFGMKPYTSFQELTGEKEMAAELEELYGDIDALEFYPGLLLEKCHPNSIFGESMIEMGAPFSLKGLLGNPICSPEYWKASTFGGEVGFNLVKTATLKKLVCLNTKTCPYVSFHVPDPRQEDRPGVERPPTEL

Compound `CC(=O)N/C=C/c1ccc2c(c1)O[C@H](c1ccc(O)c(O)c1)[C@H](NC(C)=O)O2` (racemic) [compound 4, cis-2-(3′,4′-dihydroxyphenyl)-3-acetylamino-7-(N-acetyl-2″-amino-ethylene)-1,4-benzodioxane] has an IC50 (COX-2) of 6.43 µM and an IC50 (COX-1) of 78.8 µM.

Source: PMC6331819, “Identification of N-Acetyldopamine Dimers from the Dung Beetle Catharsius molossus and Their COX-1 and COX-2 Inhibitory Activities” (Molecules, 2015)
